Measurements from patent US20210147932A1, “FLUORESCENT PROBES FOR QUANTIFICATION OF DNA DAMAGE AND REPAIR” (The Board of Trustees of the Leland Stanford Junior …, priority 2019, published 2021).
Where “and” joins values, the source holds several entries; their conditions need not be identical. Equal entries are not always repeated.

What was measured:
[1] = system: AP-containing single-stranded DNA oligonucleotide (oligonucleotide 18); test: Reaction of probe with AP-containing single-stranded DNA; format: biochemical
Experimental: FIG. 8 provides representative plot for the reaction of Compound (1) (CCVJ1) with single stranded DNA oligonucleotide 18.
Additional experiments were performed to study the origins of this unusually rapid reaction. […] To test the effect that proximity between the alkoxyamine and planar portion of the probe had on oxime kinetics in our probes, probes were synthesized having variable-length linkers (CCVJ2 and CCVJ3) from aldehyde reactive linkers L2 and L3 respectively (FIG. 2A). […] To test the importance of a double-stranded DNA structure to the rate and fluorescence response, an AP-containing single-stranded DNA oligonucleotide was reacted with CCVJ1. At pH 7, CCVJ1 reacted with a second-order rate constant of 33 M^−1s^−1 with the single-stranded substrate, roughly 5-fold slower than a double-stranded hairpin with identical sequence context (FIG. 8).

AP-DNA [2] = test: Oxime formation kinetics of probe with AP-DNA; format: biochemical; conditions: Tris buffer, probe concentration 10-100 μM
AP-DNA [3] = test: Oxime formation kinetics of probe with AP-DNA; format: biochemical
Experimental: FIG. 3 provides representative plots for calculations of k2 for Compound (1) (CCVJ1) under various buffer conditions with oligo 15. Plots were fitted in OriginPro 8.5 according to the equation derived by Larsen et. al.^5 for second-order rate constants of oxime formation. Apparent second-order rate constants were calculated as the average of three replicates.
FIG. 5A provides fluorescence real-times responses for oxime formation under varied conditions. The Time course of oxime formation between Compound (1) (CCVJ1) (5 μM) and AP-DNA (20 μM) under varied buffer conditions (50 mM) is shown. Ionic strength adjusted to 150 mM with NaCl
Next the reaction rates with CCVJ1 were evaluated. To measure oxime formation kinetics, 5 μM CCVJ1 was reacted with 20 μM AP DNA, and the resulting fluorescence time course was used to determine second-order rate constants by nonlinear regression analysis. Tris buffer was selected since it is commonly used in glycosylase assays with a salt concentration of 100 mM NaCl.
In addition to Tris buffer, oxime formation kinetics were also measured for CCVJ1 with AP DNA in a solution of a catalytic amine buffer previously shown to accelerate oxime formation. To this end, it was employed 50 mM N,N-dimethylethylenediamine (DEDA)•HCl buffered to a pH of 7.0 in place of the above Tris buffers. […] Such rapid rates of oxime formation at neutral pH are unprecedented for unactivated aldehydes.
In addition to the 5′ and 3′ neighboring bases, studies were done of the effect of the orphaned base Z paired opposite the abasic site on the UBER probe system (FIG. 10, panels C-D). Using the sequence where X=C and Y=G, the identity was varied of the base Z opposite the AP site. […] As a result, the smaller pyrimidine bases yielded a greater fluorescence light up response than the larger purine bases. It was also observed a strong effect by the opposing base on the rate of oxime formation (FIG. 10, panel D). […] This trend is in contrast to the neighboring base effect discussed above in which stronger stacking bases accelerated the rate of oxime formation.
General procedure for creating AP site DNA: A deoxyuridine containing oligonucleotide (typically 5-20 μM) was treated with 10 U/mL E. coli UDG (New England Biolabs) for 10 minutes at 37° C. in buffer to create AP site containing DNA (see below for MALDI-TOF confirmation). The hairpin was then reacted with probe from a DMSO stock solution (final DMSO concentration <5%).
Fluorescence time courses: Unless otherwise stated, fluorescence time courses were collected on a Fluoroskan Ascent Microplate Fluorometer (Thermo Fisher Scientific) with black, non-binding 384 well plates (Greiner) at a reaction volume of 60 μL with 50 mM Tris buffer pH 7 (ionic strength adjusted to 100 mM with NaCl) with a fluorescein filter set (Ex. 485, Em. 538).

[4] = system: non-lesion containing DNA hairpin (undamaged double stranded DNA); test: Fluorescence of probe with non-lesion DNA hairpin (non-covalent); format: binding; conditions: 5 μM probe, 20 μM DNA; over free probe
Experimental: FIG. 9 provides interaction between Compound (1) (CCVJ1) and DNA. […] (Ex. 485, Em. 538).
To further explore the hypothesis that the oxime rate acceleration in these AP-site DNAs was related to base stacking interactions, the fluorescence was measured of CCVJ1 in the presence and absence of a non-lesion containing DNA hairpin.

[5] = Absorption spectra of free and AP site bound probe; format: physicochemical; conditions: in buffer
Excerpt: FIG. 24 provides normalized absorption spectra of free Compound (1) (CCJV1 probe) and AP site bound probe in buffer. Oxime formation with the AP site red shifts absorption from a λmax of 454 nm in the unbound probe to a λmax of 468 nm in the bound probe. The extinction coefficient calculated for the unbound probe is 30,400 M^−1·cm^−1 and 28,700 M^−1·cm^−1 for the bound probe.
Instrumentation: NMR spectra were acquired on a Varian Inova 400 (400 MHz) or 500 (500 MHz) spectrometer and chemical shift reported in parts per million (6) relative to internal standard TMS (0 ppm). Small molecule mass spectra were measured on a Waters 2795 system via electrospray ionization (ESI) with a ZQ single quadrupole MS. Oligonucleotide mass spectra were acquired by MALDI-TOF using a Bruker Microflex MALDI-TOF in negative ion mode. Ultraviolet spectra were measured on a Cary 300. Fluorescence emission and excitation spectra were recorded on a Jobin Yvon-Spex Fluorolog 3 spectrometer with an external temperature controller. Fluorescence time courses were collected on a Fluoroskan Ascent Microplate Fluorometer (Thermo Fisher Scientific). Oligonucleotide concentrations were determined by UV-absorption on a NanoDrop One Microvolume UV-Vis Spectrophotometer (ThermoFisher Scientific). DNA synthesis was carried out on an Applied Biosystems 394 DNA/RNA synthesizer.

N#C/C(=C\c1cc2c3c(c1)CCCN3CCC2)C(=O)NCCON [CCVJ1]
increase in fluorescence on reaction with single-stranded DNA [1]: 4 fold | rate with single-stranded substrate, slower than double-stranded hairpin of identical sequence context ([1]; pH 7): roughly 5 fold | second-order rate constant with single-stranded substrate ([1]; pH 7): 33 M⁻¹ s⁻¹ | lag time tss of UBER probe coupled assay (AP-DNA [2]): 5 to 50 min | rate of oxime formation with optimal neighboring bases (AP-DNA [3]; AP hairpin X=C, Y=G, Z=C): 320 ± 13 M⁻¹ s⁻¹ | Apparent second-order rate constant of oxime formation k2 (AP-DNA [3]; DEDA pH 7 (50 mM N,N-dimethylethylenediamine HCl)): 440 M⁻¹ s⁻¹ and 440 ± 12 M⁻¹ s⁻¹ | Apparent second-order rate constant of oxime formation k2 (AP-DNA [3]; Tris pH 7, 5 μM CCVJ1, 20 μM AP DNA): 147 M⁻¹ s⁻¹ and 147 ± 8 M⁻¹ s⁻¹ | Apparent second-order rate constant of oxime formation k2 (AP-DNA [3]; Tris pH 7.5): 51 ± 2 M⁻¹ s⁻¹ | Apparent second-order rate constant of oxime formation k2 (AP-DNA [3]; Tris pH 8): 29 ± 1 M⁻¹ s⁻¹ | rate in DEDA buffer, times faster than in Tris (AP-DNA [3]; pH 7.0): ~3 times | rate, times faster than typical oxime formation in neutral aqueous buffer (AP-DNA [3]; pH 7.0): 10^3-10^4 times | increase in fluorescence intensity upon addition of non-lesion DNA hairpin [4]: ~2.5 fold | absorption λmax, AP site bound probe [5]: 468 nm | absorption λmax, unbound probe [5]: 454 nm | extinction coefficient, bound probe [5]: 28,700 M^−1·cm^−1 | extinction coefficient, unbound probe [5]: 30,400 M^−1·cm^−1
